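96-well plates; 48 h exposure; 5 concentrations. Endpoints by linear interpolation between flanking doses. Not reached: highest tested concentration assigned. TGI denotes the concentration required for complete inhibition of growth.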
These compounds were tested on K-562 leukemia (assay: inhibition of tumour cell growth, NCI panel, 48 h).

Structure (SMILES)	TGI [µM]
Cc1ccc(N2C(=O)CS/C2=C(\C#N)c2nc3ccccc3[nH]2)cc1	> 100
CN1CNc2nc(N)n(C)c(=O)c2C1	> 10
CCOc1ccc(/C(Cl)=C(\C=O)c2ccc(OC)c(OC)c2)cc1OCC	> 100
COC(=O)C(C#CCCCCC#CC(NC(=O)OCc1ccccc1)(C(=O)OC)C(F)(F)F)(NC(=O)OCc1ccccc1)C(F)(F)F (centres undefined)	> 100
N#C/C(c1nc2ccccc2[nH]1)=c1\s/c(=C/c2ccc(Cl)cc2)c(=O)n1-c1ccccc1	> 100
CCOP(=O)(OCC)C(Nc1ccc(Br)cc1)c1cccc([N+](=O)[O-])c1 (centres undefined)	38.6
COC(=O)CC1NC(=O)[C@@H]1C(C)O (some centres undefined)	> 100
O=C1c2ccccc2OP(=O)(OCC(F)(F)F)OC1(C(F)(F)F)C(F)(F)F (centres undefined)	> 100
COc1ccc(N=Cc2ccc(N(CCC#N)S(=O)(=O)c3ccccc3)cc2)cc1	> 100
CCOC(=O)/C=C/n1c2ccccc2c(=O)c2ccccc21	> 100
Nc1nc(SCc2ccc([N+](=O)[O-])cc2)nc2c1ncn2C1OC(CO)C(O)C1O (centres undefined)	> 100
CCOC(=O)c1c(N)sc2c1C(C)(C(=O)OCC)CC2 (centres undefined)	> 100
C=CCC(N(C)C(=O)[C@H](Cc1ccccc1)NC(=O)OCc1ccccc1)P(=O)(Oc1ccccc1)Oc1ccccc1 (some centres undefined)	> 100

These compounds were tested on KM12 colon (assay: inhibition of tumour cell growth, NCI panel, 48 h).

Structure (SMILES)	TGI [µM]
Cc1ccc(N2C(=O)CS/C2=C(\C#N)c2nc3ccccc3[nH]2)cc1	> 100
CN1CNc2nc(N)n(C)c(=O)c2C1	> 10
CCOc1ccc(/C(Cl)=C(\C=O)c2ccc(OC)c(OC)c2)cc1OCC	> 100
COC(=O)C(C#CCCCCC#CC(NC(=O)OCc1ccccc1)(C(=O)OC)C(F)(F)F)(NC(=O)OCc1ccccc1)C(F)(F)F (centres undefined)	> 100
N#C/C(c1nc2ccccc2[nH]1)=c1\s/c(=C/c2ccc(Cl)cc2)c(=O)n1-c1ccccc1	> 100
CCOP(=O)(OCC)C(Nc1ccc(Br)cc1)c1cccc([N+](=O)[O-])c1 (centres undefined)	32.1
O=C1c2ccccc2OP(=O)(OCC(F)(F)F)OC1(C(F)(F)F)C(F)(F)F (centres undefined)	> 100
COc1ccc(N=Cc2ccc(N(CCC#N)S(=O)(=O)c3ccccc3)cc2)cc1	> 100
CCOC(=O)/C=C/n1c2ccccc2c(=O)c2ccccc21	> 100
Cc1ccc(NC2=CC(=O)C(NO)c3ccccc32)cc1 (centres undefined)	20.2
Nc1nc(SCc2ccc([N+](=O)[O-])cc2)nc2c1ncn2C1OC(CO)C(O)C1O (centres undefined)	> 100
CCOC(=O)c1c(N)sc2c1C(C)(C(=O)OCC)CC2 (centres undefined)	> 100
C=CCC(N(C)C(=O)[C@H](Cc1ccccc1)NC(=O)OCc1ccccc1)P(=O)(Oc1ccccc1)Oc1ccccc1 (some centres undefined)	> 100

What follows are compounds tested on M14 melanoma (assay: inhibition of tumour cell growth, NCI panel, 48 h).

Structure (SMILES)	TGI [µM]
Cc1ccc(N2C(=O)CS/C2=C(\C#N)c2nc3ccccc3[nH]2)cc1	> 100
CN1CNc2nc(N)n(C)c(=O)c2C1	> 10
CCOc1ccc(/C(Cl)=C(\C=O)c2ccc(OC)c(OC)c2)cc1OCC	> 100
COC(=O)C(C#CCCCCC#CC(NC(=O)OCc1ccccc1)(C(=O)OC)C(F)(F)F)(NC(=O)OCc1ccccc1)C(F)(F)F (centres undefined)	> 100
N#C/C(c1nc2ccccc2[nH]1)=c1\s/c(=C/c2ccc(Cl)cc2)c(=O)n1-c1ccccc1	> 100
CCOP(=O)(OCC)C(Nc1ccc(Br)cc1)c1cccc([N+](=O)[O-])c1 (centres undefined)	37
COC(=O)CC1NC(=O)[C@@H]1C(C)O (some centres undefined)	> 100
O=C1c2ccccc2OP(=O)(OCC(F)(F)F)OC1(C(F)(F)F)C(F)(F)F (centres undefined)	> 100
COc1ccc(N=Cc2ccc(N(CCC#N)S(=O)(=O)c3ccccc3)cc2)cc1	> 100
CCOC(=O)/C=C/n1c2ccccc2c(=O)c2ccccc21	> 100
Cc1ccc(NC2=CC(=O)C(NO)c3ccccc32)cc1 (centres undefined)	11.4
CCOC(=O)c1c(N)sc2c1C(C)(C(=O)OCC)CC2 (centres undefined)	> 100
C=CCC(N(C)C(=O)[C@H](Cc1ccccc1)NC(=O)OCc1ccccc1)P(=O)(Oc1ccccc1)Oc1ccccc1 (some centres undefined)	> 100

What follows are compounds tested on MDA-MB-231 breast (assay: inhibition of tumour cell growth, NCI panel, 48 h).

Structure (SMILES)	TGI [µM]
CCOP(=O)(OCC)C(Nc1ccc(Br)cc1)c1cccc([N+](=O)[O-])c1 (centres undefined)	43.2
Cc1ccc(NC2=CC(=O)C(NO)c3ccccc32)cc1 (centres undefined)	7.12
CCOC(=O)c1c(N)sc2c1C(C)(C(=O)OCC)CC2 (centres undefined)	> 100

These compounds were tested on MDA-MB-435 (assay: inhibition of tumour cell growth, NCI panel, 48 h).

Structure (SMILES)	TGI [µM]
CN1CNc2nc(N)n(C)c(=O)c2C1	> 10
CCOP(=O)(OCC)C(Nc1ccc(Br)cc1)c1cccc([N+](=O)[O-])c1 (centres undefined)	36.7

Reference: PubChem BioAssay (NCI)
